From PubChem BioAssay AID179 (DTP/NCI, 2004)
Activity calls are given as the source filed them.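 How the source made its calls: active means compounds giving half or more protection of infected cells from virus-caused growth loss, again on retest; inactive means the rest.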 Where a SMILES comes first, the peptide text is derived from it. The star is where a group is joined. Boc = CC(C)(C)OC(=O)*

Tested on: CEM cells HIV-1 protection, formazan growth assay
Experiment: NCI AIDS Antiviral Assay
Conditions: for IC50: measured here: growth of uninfected CEM cells
In short: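 Category rules: moderately active means at least 50% protection on retest, and confirmed active means 100% protection reproducibly. The underlying data came from a formazan growth assay in HIV-1-infected CEM cells.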

| SMILES | EC50 | IC50 | outcome |
| --- | --- | --- | --- |
| c1ccc2c(c1)CCCN1CCc3ccccc3C21 (centres undefined) | > 200 µM | 51.3 µM |  |
| CCC[CH2][Sn]([CH2]CCC)([S]CCS(=O)(=O)O)[S]CCS(=O)(=O)O | > 200 µM | 115 µM |  |
| CC(C)C(Sc1nc(-c2ccccc2)c(-c2ccccc2)[nH]1)C(=O)N/N=C/c1ccc(Cl)cc1 (centres undefined) | > 74.1 µM | > 74.1 µM |  |
| CCNCC(O)c1ccc(N)c([N+](=O)[O-])c1 (centres undefined) | > 200 µM | > 200 µM |  |
| CC1(CO)CCCC/C1=N\Nc1cc([N+](=O)[O-])cc([N+](=O)[O-])c1 (centres undefined) | > 501 µM | 19.1 µM |  |
| CN(OC(=O)CC(=O)c1ccccc1)C(=O)Cc1ccccc1 | > 251 µM | 191 µM |  |
| Cc1ccccc1NCN1C(=O)S/C(=C2\C(=O)N(C)c3ccc(Br)cc32)C1=O | > 200 µM | 11.7 µM |  |
| Oc1ccc(C(=C(Br)c2ccccc2)c2ccc(O)cc2)cc1 | > 200 µM | 3.98 µM |  |
| CS1(=O)=CC(=O)CC(c2ccccc2)C1 (centres undefined) | > 1120 µM | > 1120 µM |  |
| CC1CC/C(=C\c2ccc(Cl)cc2)C2=C1C(c1ccc(Cl)cc1)N1C(=O)CSC1=N2 (centres undefined) |  |  | inactive |
| CC(NC(=O)C(N)Cc1ccc(O)cn1)C(=O)O (centres undefined) | > 200 µM | > 200 µM |  |
| NCCSSc1ccccc1[N+](=O)[O-] | > 200 µM | 11.2 µM |  |
| CCOC(=O)c1cc(N/N=C2/CCCNC2=O)c[nH]1 | > 200 µM | 41.7 µM |  |
| O=c1c(C=Nc2ccc([N+](=O)[O-])cc2)c(O)n(-c2ccccc2)c(=O)n1-c1ccccc1 | > 200 µM | 21.4 µM |  |
| O=c1[nH]cnc2c1ncn2C1CC(O)C(CO)(C(F)(F)F)O1 (centres undefined) | > 200 µM | 132 µM |  |
| O=C1CCCCC/C1=C\c1ccc(Cl)cc1 | > 200 µM | 27.5 µM |  |
| COc1ccc2cc(C(C)C(=O)N3C(=O)OCC3(C)C)ccc2c1 (centres undefined) | > 200 µM | 91.2 µM |  |
| O=C(Nc1ccc(O)cc1C(=O)O)c1ccc(O)cc1 | > 229 µM | > 229 µM |  |
| CC1(C)N=C(C(N)=O)c2ncn(CCO)c2N1 | > 200 µM | > 200 µM |  |
| COc1cc(CC2C(=O)OCC2C(=O)c2ccc3c(c2)OCO3)cc(OC)c1OC (centres undefined) | > 40.7 µM | > 40.7 µM |  |
| C[N+](C)(C)CC(=O)N/N=C(\CCC(=O)NCCc1ccccc1)CC(=O)c1ccccc1 |  |  | inactive |
| CO/S(=N/S(=O)(=O)c1ccccc1)c1ccccc1[N+](=O)[O-] (centres undefined) | > 380 µM | 102 µM |  |

| SMILES | EC50 | IC50 | outcome |
| --- | --- | --- | --- |
| Clc1ccc(-n2nnc(C3=NCCN3)c2-c2ccccc2)cc1 | > 30.9 µM | > 30.9 µM |  |
| COC(=O)c1c(C)cccc1C1CN=NC12Cc1cc(C)c(C)cc1C2=O (centres undefined) | > 200 µM | 120 µM |  |
| Cc1[nH]c(=O)[nH]c(=O)c1CCSSCCc1c(C)[nH]c(=O)[nH]c1=O | > 200 µM | > 200 µM |  |
| CCC(=O)SC1CC2=CC(=O)CCC2(C)C2CCC3(C)C(O)CCC3C12 (centres undefined) | > 200 µM | > 200 µM |  |
| CN(Cc1cnc2nc(N)nc(N)c2n1)c1ccc(C(=O)NC(CCC(=O)NC(P(=O)(O)O)P(=O)(O)O)C(=O)O)cc1 (centres undefined) | > 200 µM | 11.2 µM |  |
| ClCCCSSCCCCl | > 200 µM | 31.6 µM |  |
| CC(=O)Nc1ccc(OC2=CCN(C)CC2)cc1 | > 200 µM | > 200 µM |  |
| O=[N+]([O-])c1cccc2nccc(NCC(O)CO)c12 (centres undefined) | > 200 µM | 6.17 µM |  |
| [C-]#[O+].[C-]#[O+].[C-]#[O+].[Re].c1ccc2c(c1)[cH-]c1ccccc12 | > 1.66 µM | > 1.66 µM |  |
| CCN1CC2(C)CC[C@@H](OC)C34[C@@H]2[C@H](OC(C)=O)C2(OCO[C@@]25C[C@H](OC)C2C[C@]3(O)[C@@H]5[C@H]2O)[C@H]14 |  |  | inactive |
| O=C1[C@H](c2ccccc2)C2c3ccccc3CCN12 (some centres undefined) | > 200 µM | 97.7 µM |  |
| C[C@H]1CC(=O)C2=CCCC3(SCCCS3)[C@@H]2[C@H]1CO |  |  | inactive |
| CSCCC(NC(=O)OCc1ccccc1)P(=O)(O)c1ccccc1 (centres undefined) | > 200 µM | > 200 µM |  |
| Cc1nc2c(N)c3nc(C)n(N)c(=O)c3cc2c(=O)n1N | > 2.14 µM | > 2.14 µM |  |
| COC1/C=C/OC2(C)Oc3c(C)c(O)c4c(O)c(c(/C=N/n5c(=O)[nH]c6ccccc6c5=O)c(O)c4c3C2=O)NC(=O)/C(C)=C\C=C\C(C)C(O)C(C)C(O)C(C)C(OC(C)=O)C1C (centres undefined) | > 200 µM | 29.5 µM |  |
| OCC1=CCC2c3[nH]c4ccccc4c3CCN2C1 (centres undefined) | > 372 µM | > 372 µM |  |
| CS(=O)(=O)CCC1CCC(=O)O1 (centres undefined) | > 200 µM | 182 µM |  |
| Cc1ccc(C2SC(N)=Nc3c2c(C)nn3C(=O)c2ccc(Cl)cc2)cc1 (centres undefined) |  |  | inactive |
| CC(=O)OCC1OC(n2c(-c3ccccc3)c(C)c(C)c(C#N)c2=S)C(OC(C)=O)C(OC(C)=O)C1OC(C)=O (centres undefined) | > 100 µM | > 100 µM |  |
| COc1ccc2oc3cc(O)cc(OC)c3c(=O)c2c1O | > 200 µM | 145 µM |  |
| CN(/N=C/c1ccnc2ccccc12)c1c([N+](=O)[O-])cc([N+](=O)[O-])cc1[N+](=O)[O-] | > 47.9 µM | 8.71 µM |  |
| CCOC(=O)c1c[nH]c(C(=O)OCC)c1-c1cccn1-c1ccccc1 | > 200 µM | 24.5 µM |  |

| SMILES | EC50 | IC50 | outcome |
| --- | --- | --- | --- |
| O=C1NC(c2ccco2)N2C(=O)NC(c3ccco3)N12 (centres undefined) |  |  | inactive |
| CN1C(=O)CC2CCCN2C1=O (centres undefined) | > 200 µM | > 200 µM |  |
| COc1cccc(OC)c1C1ON=C(c2ccccc2)N1C12CC3CC(CC(C3)C1)C2 (centres undefined) | > 200 µM | 141 µM |  |
| COc1ccc(C[C@]23CCC(=O)N2CCc2cc(OC)c(O)cc23)cc1O |  |  | inactive |
| CCCN(CCC)C(=O)c1c([N+](=O)[O-])cc(C(F)(F)F)cc1[N+](=O)[O-] |  |  | inactive |
| CC(=O)c1cc2cc3c4c(c2oc1=O)CCCN4CCC3 | > 25.7 µM | > 25.7 µM |  |
| NC(=O)CCC(N=c1c2ccccc2n(O)c2ccccc12)C(=O)O (centres undefined) |  |  | inactive |
| NCCN.O=N[O-].O=N[O-].O=N[O-].O=N[O-].[Co+3].[K+] | > 724 µM | 219 µM |  |
| O=c1[nH]c(=O)n(C2CC(O)C(CO)O2)cc1OCCCc1ccccc1 (centres undefined) | > 200 µM | > 200 µM |  |
| C/C(CC(=O)Nc1cc(C)ccc1C)=N\NC(=O)c1ccncc1 | > 398 µM | 20.9 µM |  |
| O=[N+]([O-])c1ccc(-n2cccc2)cc1 | > 200 µM | 22.9 µM |  |
| COc1ccc(C2OC(N)=C(C#N)C3=C2CCCC3C)cc1OC (centres undefined) | > 200 µM | > 200 µM |  |
| CCCCCCCCCCCCSC(=S)c1c(C)[nH]n(CCCCCCCCCCCC)c1=O | > 51.3 µM | > 51.3 µM |  |
| O=C1C=C(N2CCCC2)c2ncccc2C1=O |  |  | inactive |
| CN(C)c1ccc(SSc2ccc(N(C)C)cc2)cc1 | > 200 µM | 14.1 µM |  |
| CC1CCC2CC(=O)NC(=O)CC12 (centres undefined) | > 457 µM | > 457 µM |  |
| O=C1CCc2c(Cl)sc(Cl)c21 | > 331 µM | 151 µM |  |
| CC1=Cc2cccc(C)c2C(=O)C1=O | > 38.9 µM | 6.46 µM |  |
| COC1/C=C/OC2(C)Oc3c(C)c(O)c4c(O)c(cc(OCC(=O)N(C)CCCCC(=O)O)c4c3C2=O)NC(=O)/C(C)=C/C=C/C(C)C(O)C(C)C(O)C(C)C(OC(C)=O)C1C (centres undefined) | > 200 µM | 19.1 µM |  |
| O=Cc1ccc(-c2ccc(-c3ccc(C=O)s3)o2)s1 |  |  | inactive |
| O=C(Nc1ccc(OCC2=NCCN2)cc1)c1ccc(C(=O)Nc2ccc(OCC3=NCCN3)cc2)cc1 | > 200 µM | > 200 µM |  |
| C1=CNc2ccccc2N=C1 | > 200 µM | > 200 µM |  |

| SMILES | EC50 | IC50 | outcome |
| --- | --- | --- | --- |
| CCOC(=O)C(NC(=O)c1ccccc1)(Nc1ccc(S(=O)(=O)Nc2cc(C)nc(C)n2)cc1)C(F)(F)F (centres undefined) | > 200 µM | > 200 µM |  |
| C=CC(C)(C)C(=C)C(=O)N(C)c1ccccc1I | > 200 µM | 89.1 µM |  |
| COc1ccc(C=C2C(=O)NC(=O)NC2=O)cc1OCc1ccccc1 | > 200 µM | 24.5 µM |  |
| CCOc1ccc(NC(=O)C(=O)C(C(=O)c2ccc3ccccc3c2)C2OC(=O)c3ccccc32)cc1 (centres undefined) | > 52.5 µM | 45.7 µM |  |
| O=c1c2ccccc2nc(N/N=C/c2ccccc2O)n1-c1ccccc1 | > 200 µM | 1.48 µM |  |
| Cc1cc(C)n(-c2nc3ccccc3c(=O)n2-c2ccccc2)n1 | > 200 µM | > 200 µM |  |
| CC(C)[Si]1(C(C)C)OCC2OC(n3ccc(=O)[nH]c3=O)C(O)(CO)C2O[Si](C(C)C)(C(C)C)O1 (centres undefined) | > 200 µM | 20.9 µM |  |
| COC(=O)CCc1c(Cc2ccc[nH]2)[nH]c(C(=O)OCc2ccccc2)c1C | > 200 µM | 30.9 µM |  |
| CC(C)(C)OC(=O)NC(Cc1ccccc1)C(=O)N1CCCC1C(N)=O (stereo not drawn) (Boc-Phe-Pro-NH2; configuration not given here) | > 200 µM | > 200 µM |  |
| CCOC(=O)CC(Sc1ccccc1)Sc1ccccc1 |  |  | inactive |
| CCCNC1=C(C(=O)OCC)C(=O)CO1 | > 33.9 µM | > 33.9 µM |  |
| C=CCC(SC)C1=C(C)C(=O)c2ccccc21 (centres undefined) | > 200 µM | 110 µM |  |
| CC1CN(c2ccccc2)NC1=O (centres undefined) | > 200 µM | > 200 µM |  |
| [CH2+][B-]1(C)n2cc(Br)c[n+]2[B-](C)(C)[n+]2cc(Br)cn21 | > 200 µM | 105 µM |  |
| NC1=NN(c2ccccc2)C(=O)C1C(=O)CCC(=O)Nc1cccc(C(F)(F)F)c1 (centres undefined) | > 427 µM | 407 µM |  |
| O=C(Nc1ccccc1)NC(CSSCC(NC(=O)Nc1ccccc1)C(=O)O)C(=O)O (centres undefined) | > 200 µM | 7.24 µM |  |
| COC(=O)Cc1c([C@H]2[C@H](CC(=O)OC)c3ccccc3N2S(=O)(=O)c2ccc(C)cc2)[nH]c2ccccc12 | > 102 µM | 11.5 µM |  |
| CC(=O)OCCNc1n[nH]c(=O)c2cnccc12 | > 1000 µM | > 1000 µM |  |
| C#CCOCC12C=CC(O1)C1C(=O)OCC12 (centres undefined) | > 200 µM | > 200 µM |  |
| O=C(C(=O)n1ccc2ccccc21)n1ccc2ccccc21 | > 200 µM | 178 µM |  |
| O=C([O-])C1([n+]2c(-c3ccccc3)cc(-c3ccccc3)cc2-c2ccccc2)CC1 | > 200 µM | 81.3 µM |  |
| O=c1n(/N=C/c2ccccc2)c(=O)n2n1C1C=CC2CC1 | > 200 µM | > 200 µM |  |
